# Test results taken from patent US20200030355A1, “COMBINATION THERAPY FOR TREATING CANCER” (Epizyme, Inc., priority 2014, published 2020).
# Structures can show the parent of a compound that is named as a salt.
# Test system: MOLM-13 cells
# Assay: EPZ-5676 300 nM 7-day pre-treatment, then second compound 72 hours, ATPLite, IC50 shift (Example 6)
# Format: cell-based, human
# Details: 300 nM EPZ-5676 or DMSO 7-day pre-treatment, then 2nd compound 72 hours, Synergy = IC50 of 2nd compound decreased by 2-fold or more vs DMSO control
# Procedure: Cells were then equilibrated in incubators for 24 hours before treatment with a second compound. Treated assay plates were incubated with a second compound for 72 hours. After this time, plates were developed for endpoint analysis using ATPLite to measure ATP content, which is used as an indicator of cell viability.
# “N/D” means that IC50 of the second compound could not be determined for both conditions.
row,Compound,MOLM-13 (summary of combination study: EPZ-5676 + 2nd compound)
1,c1ccc([C@@H]2C[C@H]2NC2CCNCC2)cc1 [GSK-LSD1],Synergy (considered synergistic if the IC50 value of the second compound decreased by 2-fold or more when EPZ-5676 was added as compared to the DMSO control)
2,Clc1ccc(C2(c3ccc(-c4cn[nH]c4)cc3)CCNCC2)cc1 [AT7867],Synergy (considered synergistic if the IC50 value of the second compound decreased by 2-fold or more when EPZ-5676 was added as compared to the DMSO control)
3,CC(=O)O/N=C1\C(=O)N(Cc2cc(Cl)ccc2Cl)c2ccc(Cl)cc21 [LDN 57444],Synergy (considered synergistic if the IC50 value of the second compound decreased by 2-fold or more when EPZ-5676 was added as compared to the DMSO control)
4,C[C@@]1(C(=O)Nc2ccc(F)nc2)CCCN1c1nc(Nc2cc(C3CC3)n[nH]2)c2cccn2n1 [BMS-754807],Synergy (considered synergistic if the IC50 value of the second compound decreased by 2-fold or more when EPZ-5676 was added as compared to the DMSO control)
5,COc1cc([C@@H]2c3cc4c(cc3[C@@H](O[C@@H]3O[C@@H]5CO[C@@H](C)O[C@H]5[C@H](O)[C@H]3O)[C@H]3COC(=O)[C@H]23)OCO4)cc(OC)c1O [Etoposide],Synergy (considered synergistic if the IC50 value of the second compound decreased by 2-fold or more when EPZ-5676 was added as compared to the DMSO control)
6,CC1=C(/C=C/C(C)=C\C=C\C(C)=C\C(=O)O)C(C)(C)CCC1 [Alitretinoin],Synergy (considered synergistic if the IC50 value of the second compound decreased by 2-fold or more when EPZ-5676 was added as compared to the DMSO control)
7,O=C(c1cc(Cc2n[nH]c(=O)c3ccccc23)ccc1F)N1CCN(C(=O)C2CC2)CC1 [Olaparib],Synergy (considered synergistic if the IC50 value of the second compound decreased by 2-fold or more when EPZ-5676 was added as compared to the DMSO control)
8,Cn1ncnc1[C@H]1c2n[nH]c(=O)c3cc(F)cc(c23)N[C@@H]1c1ccc(F)cc1 [BMN 673],Synergy (considered synergistic if the IC50 value of the second compound decreased by 2-fold or more when EPZ-5676 was added as compared to the DMSO control)
9,O=c1cc(N2CCOCC2)oc2c(-c3cccc4c3sc3ccccc34)cccc12 [NU 7441],Synergy (considered synergistic if the IC50 value of the second compound decreased by 2-fold or more when EPZ-5676 was added as compared to the DMSO control)
10,Cn1c2ccccc2c2c3c(c4c5ccccc5n(CCC#N)c4c21)CNC3=O [Go 6976],Synergy (considered synergistic if the IC50 value of the second compound decreased by 2-fold or more when EPZ-5676 was added as compared to the DMSO control)
11,Cc1cc(/N=N/c2ccc(S(=O)(=O)Nc3ccccn3)cc2)c(N)cc1O [MS 436],Synergy (considered synergistic if the IC50 value of the second compound decreased by 2-fold or more when EPZ-5676 was added as compared to the DMSO control)
12,O=C(c1ccc(OCCN2CCCCC2)cc1)c1c(-c2ccc(O)cc2)sc2cc(O)ccc12 [Raloxifene Hydrochloride],Synergy (considered synergistic if the IC50 value of the second compound decreased by 2-fold or more when EPZ-5676 was added as compared to the DMSO control)
13,CS(=O)(=O)CCNCc1ccc(-c2ccc3ncnc(Nc4ccc(OCc5cccc(F)c5)c(Cl)c4)c3c2)o1 [Lapatinib],Synergy (considered synergistic if the IC50 value of the second compound decreased by 2-fold or more when EPZ-5676 was added as compared to the DMSO control)
14,COc1ccc(Cl)c(Nc2nc3ccccc3nc2NS(=O)(=O)c2cccc(NC(=O)C(C)(C)N)c2)c1 [XL147],Synergy (considered synergistic if the IC50 value of the second compound decreased by 2-fold or more when EPZ-5676 was added as compared to the DMSO control)
15,O=C1c2ccccc2-c2nc3nonc3nc21 [SMER 3],Synergy (considered synergistic if the IC50 value of the second compound decreased by 2-fold or more when EPZ-5676 was added as compared to the DMSO control)
16,Cc1cccc(-c2[nH]c(C(C)(C)C)nc2-c2ccc3c(c2)OCO3)n1 [SB-505124],Synergy (considered synergistic if the IC50 value of the second compound decreased by 2-fold or more when EPZ-5676 was added as compared to the DMSO control)
17,CC(C)(C)c1nc(-c2cccc(NS(=O)(=O)c3c(F)cccc3F)c2F)c(-c2ccnc(N)n2)s1 [Dabrafenib],Synergy (considered synergistic if the IC50 value of the second compound decreased by 2-fold or more when EPZ-5676 was added as compared to the DMSO control)
18,Cc1cccc(CC(=O)N2CCc3c2ccc(-c2cn(C)c4ncnc(N)c24)c3F)n1 [GSK2656157],Synergy (considered synergistic if the IC50 value of the second compound decreased by 2-fold or more when EPZ-5676 was added as compared to the DMSO control)
19,COc1cc2nc(N3CCCN(C)CC3)nc(NC3CCN(Cc4ccccc4)CC3)c2cc1OC [BIX01294],Synergy (considered synergistic if the IC50 value of the second compound decreased by 2-fold or more when EPZ-5676 was added as compared to the DMSO control)
20,CC(=O)OC[C@H]1O[C@@H]([S-])[C@H](OC(C)=O)[C@@H](OC(C)=O)[C@@H]1OC(C)=O.CCP(CC)CC.[Au+] [Auranofin],Synergy (considered synergistic if the IC50 value of the second compound decreased by 2-fold or more when EPZ-5676 was added as compared to the DMSO control)
21,CCS(=O)(=O)N1CC(CC#N)(n2cc(-c3ncnc4[nH]ccc34)cn2)C1 [Baricitinib],Synergy (considered synergistic if the IC50 value of the second compound decreased by 2-fold or more when EPZ-5676 was added as compared to the DMSO control)
22,CC[C@H](Nc1ncnc2[nH]cnc12)c1nc2cccc(F)c2c(=O)n1-c1ccccc1 [CAL-101],Synergy (considered synergistic if the IC50 value of the second compound decreased by 2-fold or more when EPZ-5676 was added as compared to the DMSO control)
23,Cc1cc(Cl)cc(OCCn2cc(F)cn2)c1-c1nc(N)nc2c1CN(C(=O)NCC(C)(F)F)C2 [BEP800],Synergy (considered synergistic if the IC50 value of the second compound decreased by 2-fold or more when EPZ-5676 was added as compared to the DMSO control)
24,c1ccc2c(CCNc3ccc(Nc4ccncc4)cc3)c[nH]c2c1 [JNJ 26854165],Synergy (considered synergistic if the IC50 value of the second compound decreased by 2-fold or more when EPZ-5676 was added as compared to the DMSO control)
25,Nc1ccccc1NC(=O)c1ccc(CNC(=O)OCc2cccnc2)cc1 [MS-275],Synergy (considered synergistic if the IC50 value of the second compound decreased by 2-fold or more when EPZ-5676 was added as compared to the DMSO control)
26,COc1cc(Nc2ncc(F)c(Nc3ccc4c(n3)N(COP(=O)(O)O)C(=O)C(C)(C)O4)n2)cc(OC)c1OC [Fostamatinib disodium],Synergy (considered synergistic if the IC50 value of the second compound decreased by 2-fold or more when EPZ-5676 was added as compared to the DMSO control)
